From article PMC12652692, “Synthesis and In Vitro Anticancer Evaluation of Novel Phosphonium Derivatives of Chrysin” (International Journal of Molecular Sciences, 2025) come the findings set out here.

What all share (test): NCI60 one-dose screen
Type in all cases: cell-based

One assay relates to DU-145. Conditions: Homo sapiens; DU-145, 10 μM; read-out: Growth percent. As for the experimental part: (§1) The screening results are presented in the Supplementary Materials (Table S1), where the cytotoxicity was determined for the 10 µM concentration. […] The negative numbers indicate significant decreases in the cell number. […] Compared to the reference chrysin (2), all phosphonium hybrids (3a–h) had significant antiproliferative activities. […] At the same time, it should be noted that more than 60% average reduction was also obtained in the case of the other examined conjugates (3a–h).
(§2) A detailed description of the NCI screening procedures, including the one-dose and five-dose tests, can be found in the Supplementary Materials, on the website of NCI [39], and in our previous work.
(§3) A detailed description of the NCI screening procedures can also be found on the website of NCI [39], and in our […]
(§4) All candidates were examined at first at a single high dose (10 μM) in the full NCI60 cell panel. The value reported for the one-dose test is growth relative to the no-drug control and relative to the time zero number of cells. This made possible the disclosure of both growth inhibition (numbers between 0 and 100) and lethality (numbers less than 0). For example, a value of 100 means no growth inhibition. A value of 20 would mean 80% growth inhibition. A value of 0 means no net growth over the course of the analysis. A value of −20 would mean 20% lethality. A value of −100 means all cells are dead. […]
(§5) concentration levels. The human tumor cell lines of the cancer screening panel were grown in RPMI 1640 medium containing 5% fetal bovine serum and 2 mM l-glutamine. Characteristically, cells were injected in 96-well microtiter plates in 0.1 mL at plating densities ranging from 5000 to 40,000 cells/well, depending on the doubling time of individual cell lines. After cell inoculation, the microtiter plates were incubated at 37 °C, 5% carbon dioxide, 95% air, and 100% relative humidity for 24 hours before the addition of tested compounds. After 24 hours, 2 plates of each cell line were fixed in situ with Cl3COOH (TCA), to represent a measurement of the cell population for each cell line at the time of drug addition (tz). Tested compounds were solubilized in DMSO at 400-fold the desired final maximum test concentration and stored frozen before application. In the course of the drug addition, an aliquot of frozen concentrate was thawed and diluted to twice the desired final maximum test concentration with a complete medium containing 50 μg mL−1 gentamicin. Additional four, 10-fold or ½ log serial dilutions were produced to furnish a total of five drug concentrations plus control. Aliquots of 0.1 mL of these different drug dilutions were added to the appropriate microtiter wells already containing 0.1 mL of medium, resulting in the required final drug concentrations.
(§6) Following drug addition, the plates were incubated at 37 °C, 5% carbon dioxide, 95% air, and 100% relative humidity for an additional 48 hours. For adherent cells, the test was finished by the addition of cold Cl3COOH. Cells were fixed in situ by the addition of 50 μL of cold 50% (w/v) Cl3COOH, and incubated at 4 °C for 1 hour. The supernatant was discarded, and the plates were washed with H2O (5×) and dried in air. Sulforhodamine B (SRB) solution (0.1 mL) at 0.4% (w/v) in 1% CH3COOH was added to each well, and plates were incubated at RT for 10 min. After staining, the unbound dye was removed by washing five times with 1% CH3COOH, and the plates were dried in the air. The bound stain is afterward solubilized with a 10 mM trizma base, and the absorbance is read on an automated plate reader at λ = 515 nm. Utilizing the seven absorbance measurements [time zero (tz), control growth (c), and test growth in the presence of the drug at the five concentration levels (ti)], the percentage growth was determined at each of the drug concentration levels. Growth inhibition (%) was calculated as:
(§7) [(ti − tz)/(c − tz)] × 100, for concentrations where ti ≥ tz (1) […]

The subject of a further assay is HCT-116. Conditions: Homo sapiens; HCT-116, 10 μM; read-out: Growth percent. As to the method: as §1, §2, §3, §4, §5, §6, §7
The next assay has as its system HL-60(TB). Conditions: Homo sapiens, read-out: Growth percent. As for the experimental part:
as §1, §2, §3, §4, §5, §6, §7

A further assay relates to K-562. The following applies: Homo sapiens, K562; K-562, 10 μM; read-out: Growth percent. As to the method: as §1, §2, §3, §4, §5, §6, §7
The subject of another assay is MOLT-4. The following applies: Homo sapiens; MOLT-4, 10 μM; read-out: Growth percent. As to the method: as §1, §2, §3, §4, §5, §6, §7
For another assay, the system named is NCI-H23. Conditions: Homo sapiens; NCI-H23, 10 μM; read-out: Growth percent. As for the experimental part:
as §1, §2, §3, §4, §5, §6, §7

The test system of a further assay is NCI-H460. Conditions: Homo sapiens; NCI-H460, 10 μM; read-out: Growth percent. As for the experimental part: as §1, §2, §3, §4, §5, §6, §7
For the next assay, the system named is NCI/ADR-RES. The following applies: Homo sapiens, read-out: Growth percent. As to the method: as §1, §2, §3, §4, §5, §6, §7
For a further assay, the system named is OVCAR-3. The following applies: Homo sapiens; OVCAR-3, 10 μM; read-out: Growth percent. As for the experimental part: as §1, §2, §3, §4, §5, §6, §7
The test system of a further assay is OVCAR-4. Conditions: Homo sapiens; OVCAR-4, 10 μM; read-out: Growth percent. As to the method:
as §1, §2, §3, §4, §5, §6, §7

In the next assay the test system is OVCAR-5. The following applies: Homo sapiens; OVCAR-5, 10 μM; read-out: Growth percent. As to the method:
as §1, §2, §3, §4, §5, §6, §7

The next assay relates to OVCAR-8. Conditions: Homo sapiens; OVCAR-8, 10 μM; read-out: Growth percent. As to the method: as §1, §2, §3, §4, §5, §6, §7
In a further assay the test system is RPMI-8226. Conditions: Homo sapiens; RPMI-8226, 10 μM; read-out: Growth percent. As to the method: as §1, §2, §3, §4, §5, §6, §7
In another assay the test system is SF-268. Conditions: Homo sapiens; SF-268, 10 μM; read-out: Growth percent. As for the experimental part: as §1, §2, §3, §4, §5, §6, §7
The test system of the next assay is SF-295. Conditions: Homo sapiens; SF-295, 10 μM; read-out: Growth percent. As to the method: as §1, §2, §3, §4, §5, §6, §7
In another assay the test system is SK-MEL-2. The following applies: Homo sapiens; SK-MEL-2, 10 μM; read-out: Growth percent. As for the experimental part: as §1, §2, §3, §4, §5, §6, §7
The next assay concerns SK-OV-3. Conditions: Homo sapiens; SK-OV-3, 10 μM; read-out: Growth percent. As for the experimental part: as §1, §2, §3, §4, §5, §6, §7
The next assay relates to SN12C. Conditions: Homo sapiens, read-out: Growth percent. As to the method: as §1, §2, §3, §4, §5, §6, §7
In another assay the test system is SNB-75. Conditions: Homo sapiens; SNB-75, 10 μM; read-out: Growth percent. As to the method: as §1, §2, §3, §4, §5, §6, §7
Another assay concerns UO-31. Conditions: Homo sapiens; UO-31, 10 μM; read-out: Growth percent. As for the experimental part:
as §1, §2, §3, §4, §5, §6, §7

SMILES strings stand for the structures.

In the case of `O=c1cc(-c2ccccc2)oc2cc(OCCCC[P+](c3ccccc3)(c3ccccc3)c3ccccc3)cc(O)c12` [3a], the activity at 10 µM was -94.8% with DU-145; -58.1% in the assay with HCT-116; -51.5% in the assay with HL-60(TB); -24.1% in the assay on K-562; -41.7% in the assay with MOLT-4; -93% with NCI-H23. The activity at 10 µM was -75.8% in the assay on NCI-H460; -68.3% with NCI/ADR-RES; -94% in the assay with OVCAR-3; -69.1% with OVCAR-4; -97.7% in the assay on OVCAR-5; -61.1% with OVCAR-8. Besides, the activity at 10 µM was -66.7% with RPMI-8226; -59% with SF-268; -96% in the assay on SF-295; -94.1% with SK-MEL-2; -83.4% in the assay on SK-OV-3; -49.5% with SN12C. Also, the values for the activity at 10 µM in the assay on SNB-75 and in the assay with UO-31 were -80.7% and -97.1%, respectively.

On to `Cc1ccc([P+](CCCCOc2cc(O)c3c(=O)cc(-c4ccccc4)oc3c2)(c2ccc(C)cc2)c2ccc(C)cc2)cc1` [3b], for which the activity at 10 µM in the assay with DU-145 was -85.9%; in the assay with HCT-116, 1.29%; with HL-60(TB), -60.4%; with K-562 it was -4.21%; with MOLT-4 it was -43.4%; with NCI-H23, -90.9%. Also, the activity at 10 µM with NCI-H460 is -47.8%; with NCI/ADR-RES, -65.7%; in the assay with OVCAR-3 it was -88.2%; in the assay on OVCAR-4, -73.1%; with OVCAR-5, -80.3%; in the assay on OVCAR-8 it was -30.1%. The activity at 10 µM in the assay with RPMI-8226 was -55.8%; in the assay on SF-268 it was -61.3%; with SF-295, -91.3%; in the assay with SK-MEL-2, -76.9%; in the assay on SK-OV-3 it was -75.3%; with SN12C, -84.4%. For the same molecule, the activity at 10 µM was -78.4% with SNB-75 and -82.5% with UO-31.

`COc1ccc([P+](CCCCOc2cc(O)c3c(=O)cc(-c4ccccc4)oc3c2)(c2ccc(OC)cc2)c2ccc(OC)cc2)cc1` [3c]: the activity at 10 µM in the assay on DU-145 was -90.7%; in the assay with HCT-116, -95.5%; in the assay with HL-60(TB), -31.2%; with K-562, -39.8%; with MOLT-4 it was -51.6%; in the assay with NCI-H23, -77%. Moreover, the activity at 10 µM is 2.18% with NCI-H460; -13.2% in the assay on NCI/ADR-RES; -68.1% in the assay with OVCAR-3; -74.3% in the assay with OVCAR-4; -59.3% in the assay on OVCAR-5; -90.6% in the assay with OVCAR-8. Besides, the activity at 10 µM with RPMI-8226 was -67.5%; in the assay on SF-268, -38.3%; in the assay on SF-295 it was -73.8%; with SK-MEL-2 it was -88.6%; in the assay with SK-OV-3, -77.7%; in the assay with SN12C it was -59%. Further, the activity at 10 µM in the assay with SNB-75 was -51.1%; with UO-31 it was -89.9%.

As for `O=c1cc(-c2ccccc2)oc2cc(OCCCC[P+](c3ccc(F)cc3)(c3ccc(F)cc3)c3ccc(F)cc3)cc(O)c12` [3d], the activity at 10 µM was -79.2% with DU-145; -66.6% in the assay with HCT-116; -46.9% in the assay on HL-60(TB); -17.6% in the assay with K-562; -24.3% in the assay on MOLT-4; -93% in the assay with NCI-H23. The activity at 10 µM was -47.4% in the assay on NCI-H460; 65% with NCI/ADR-RES; -72% in the assay on OVCAR-3; -48.1% in the assay on OVCAR-4; -89.9% with OVCAR-5; -45.6% in the assay on OVCAR-8. Moreover, the activity at 10 µM in the assay with RPMI-8226 was -30.1%; in the assay on SF-268 it was -71.6%; in the assay with SF-295 it was -74%; in the assay with SK-MEL-2 it was -77.3%; in the assay with SK-OV-3 it was -88.2%; in the assay on SN12C, -82.1%. The activity at 10 µM is -78% in the assay on SNB-75 and -86.9% in the assay with UO-31.

`O=c1cc(-c2ccccc2)oc2cc(OCCCC[P+](C3CCCCC3)(C3CCCCC3)C3CCCCC3)cc(O)c12` [3e]: the activity at 10 µM was -96.1% in the assay on DU-145; -62% with HCT-116; -20.6% in the assay on HL-60(TB); 3.17% in the assay with K-562; -60.6% in the assay with MOLT-4; -88.5% in the assay with NCI-H23. Further, the activity at 10 µM is -66% in the assay with NCI-H460; -20.8% in the assay with NCI/ADR-RES; -81.9% in the assay on OVCAR-3; -64.5% in the assay with OVCAR-4; -60.5% in the assay with OVCAR-5; -86.4% in the assay on OVCAR-8. In addition, the activity at 10 µM is -62.6% in the assay on RPMI-8226; -67.5% with SF-268; -87% in the assay with SF-295; -91.9% in the assay on SK-MEL-2; -82.4% with SK-OV-3; -57% in the assay on SN12C. The activity at 10 µM was -80.5% in the assay on SNB-75 and -92.5% in the assay on UO-31.

`Cc1ccccc1[P+](CCCCOc1cc(O)c2c(=O)cc(-c3ccccc3)oc2c1)(c1ccccc1C)c1ccccc1C` [3g]: the activity at 10 µM is -97.1% in the assay on DU-145; -94.5% in the assay on HCT-116; -97.4% in the assay on HL-60(TB); -97.5% in the assay on K-562; -98.6% with MOLT-4; -98.4% in the assay with NCI-H23. Moreover, the activity at 10 µM was -91.5% with NCI-H460; -97.9% with NCI/ADR-RES; -99.1% with OVCAR-3; -98.7% with OVCAR-4; -95.9% with OVCAR-8; -98.5% in the assay on RPMI-8226. Also, the activity at 10 µM with SF-268 was -97.9%; in the assay on SF-295, -98.7%; with SK-MEL-2, -98.5%; with SK-OV-3, -97.9%; with SN12C, -97%; in the assay with SNB-75, -99%.
